Data reported in PubChem BioAssay (NCI).
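Grown in 96-well plates, cells were treated for 48 hours with each compound at five concentrations. Insufficient inhibition: endpoint recorded as highest concentration tested. Definition used: TGI = concentration required for complete inhibition of growth.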

Columns and labels:
Test in all cases: NCI tumour cell line growth inhibition, 48 h
ACHN renal = tested on: ACHN renal
HOP-92 NSCLC = tested on: HOP-92 NSCLC
MDA-MB-435 = tested on: MDA-MB-435
HCT-116 colon = tested on: HCT-116 colon
SNB-19 CNS = tested on: SNB-19 CNS
M14 melanoma = tested on: M14 melanoma
UACC-62 melanoma = tested on: UACC-62 melanoma
PC-3 prostate = tested on: PC-3 prostate
MCF7 breast = tested on: MCF7 breast
CAKI-1 renal = tested on: CAKI-1 renal
SK-MEL-5 melanoma = tested on: SK-MEL-5 melanoma
BT-549 breast = tested on: BT-549 breast
UO-31 renal = tested on: UO-31 renal
TK-10 renal = tested on: TK-10 renal
KM12 colon = tested on: KM12 colon
SW-620 colon = tested on: SW-620 colon
786-0 renal = tested on: 786-0 renal
OVCAR-5 ovarian = tested on: OVCAR-5 ovarian
SF-295 CNS = tested on: SF-295 CNS
SN12C renal = tested on: SN12C renal
T-47D breast = tested on: T-47D breast
SK-MEL-2 melanoma = tested on: SK-MEL-2 melanoma
MDA-N = tested on: MDA-N
COLO 205 colon = tested on: COLO 205 colon
HCC-2998 colon = tested on: HCC-2998 colon
MDA-MB-231 breast = tested on: MDA-MB-231 breast
HL-60(TB) leukemia = tested on: HL-60(TB) leukemia
NCI/ADR-RES ovarian = tested on: NCI/ADR-RES ovarian
SF-539 CNS = tested on: SF-539 CNS
CCRF-CEM leukemia = tested on: CCRF-CEM leukemia
SK-OV-3 ovarian = tested on: SK-OV-3 ovarian
HS 578T breast = tested on: HS 578T breast
K-562 leukemia = tested on: K-562 leukemia
DU-145 prostate = tested on: DU-145 prostate
HOP-62 NSCLC = tested on: HOP-62 NSCLC
A498 renal = tested on: A498 renal
HCT-15 colon = tested on: HCT-15 colon
NCI-H522 lung = tested on: NCI-H522 lung
IGROV1 ovarian = tested on: IGROV1 ovarian
LOX IMVI melanoma = tested on: LOX IMVI melanoma
SNB-75 CNS = tested on: SNB-75 CNS
MOLT-4 leukemia = tested on: MOLT-4 leukemia
SK-MEL-28 melanoma = tested on: SK-MEL-28 melanoma
SF-268 CNS = tested on: SF-268 CNS
A549 NSCLC = tested on: A549 NSCLC
NCI-H460 lung = tested on: NCI-H460 lung
SR leukemia = tested on: SR leukemia
OVCAR-8 ovarian = tested on: OVCAR-8 ovarian
EKVX NSCLC = tested on: EKVX NSCLC
OVCAR-3 ovarian = tested on: OVCAR-3 ovarian
UACC-257 melanoma = tested on: UACC-257 melanoma
MALME-3M melanoma = tested on: MALME-3M melanoma
RXF 393 renal = tested on: RXF 393 renal
U251 CNS = tested on: U251 CNS
NCI-H226 lung = tested on: NCI-H226 lung
RPMI-8226 leukemia = tested on: RPMI-8226 leukemia
OVCAR-4 ovarian = tested on: OVCAR-4 ovarian
NCI-H23 lung = tested on: NCI-H23 lung
HT29 colon = tested on: HT29 colon

CCOC(=O)N/N=C(/N)Cc1ccccc1
TGI (ACHN renal): > 100 µM | TGI (HOP-92 NSCLC): > 100 µM | TGI (MDA-MB-435): > 100 µM | TGI (HCT-116 colon): > 100 µM | TGI (SNB-19 CNS): > 100 µM | TGI (M14 melanoma): > 100 µM | TGI (UACC-62 melanoma): > 100 µM | TGI (PC-3 prostate): > 100 µM | TGI (MCF7 breast): > 100 µM | TGI (CAKI-1 renal): > 100 µM | TGI (SK-MEL-5 melanoma): > 100 µM | TGI (BT-549 breast): > 100 µM | TGI (UO-31 renal): > 100 µM | TGI (TK-10 renal): > 100 µM | TGI (KM12 colon): > 100 µM | TGI (SW-620 colon): > 100 µM | TGI (786-0 renal): > 100 µM | TGI (OVCAR-5 ovarian): > 100 µM | TGI (SF-295 CNS): > 100 µM | TGI (SN12C renal): > 100 µM | TGI (T-47D breast): > 100 µM | TGI (SK-MEL-2 melanoma): > 100 µM | TGI (MDA-N): > 100 µM | TGI (COLO 205 colon): > 100 µM | TGI (HCC-2998 colon): > 100 µM | TGI (MDA-MB-231 breast): > 100 µM | TGI (HL-60(TB) leukemia): > 100 µM | TGI (NCI/ADR-RES ovarian): > 100 µM | TGI (SF-539 CNS): > 100 µM | TGI (CCRF-CEM leukemia): > 100 µM | TGI (SK-OV-3 ovarian): > 100 µM | TGI (HS 578T breast): > 100 µM | TGI (K-562 leukemia): > 100 µM | TGI (DU-145 prostate): > 100 µM | TGI (HOP-62 NSCLC): > 100 µM | TGI (A498 renal): > 100 µM | TGI (HCT-15 colon): > 100 µM | TGI (NCI-H522 lung): > 100 µM | TGI (IGROV1 ovarian): > 100 µM | TGI (LOX IMVI melanoma): > 100 µM | TGI (SNB-75 CNS): > 100 µM | TGI (MOLT-4 leukemia): > 100 µM | TGI (SK-MEL-28 melanoma): > 100 µM | TGI (SF-268 CNS): > 100 µM | TGI (A549 NSCLC): > 100 µM | TGI (NCI-H460 lung): > 100 µM | TGI (SR leukemia): > 100 µM | TGI (OVCAR-8 ovarian): > 100 µM | TGI (EKVX NSCLC): > 100 µM | TGI (OVCAR-3 ovarian): > 100 µM | TGI (UACC-257 melanoma): > 100 µM | TGI (MALME-3M melanoma): > 100 µM | TGI (RXF 393 renal): > 100 µM

Cc1ccc(S(=O)(=O)OC2C3OC(C)(C)OC3OC2C(c2cc(O)c3c(c2O)C(=O)c2ccccc2C3=O)c2cc(O)c3c(c2O)C(=O)c2ccccc2C3=O)cc1 (stereo unspecified)
TGI (U251 CNS): > 10 µM | TGI (ACHN renal): > 10 µM | TGI (HOP-92 NSCLC): > 10 µM | TGI (MDA-MB-435): > 10 µM | TGI (HCT-116 colon): > 10 µM | TGI (SNB-19 CNS): > 10 µM | TGI (M14 melanoma): > 10 µM | TGI (UACC-62 melanoma): > 10 µM | TGI (PC-3 prostate): > 10 µM | TGI (NCI-H226 lung): > 10 µM | TGI (MCF7 breast): > 10 µM | TGI (CAKI-1 renal): > 10 µM | TGI (SK-MEL-5 melanoma): > 10 µM | TGI (RPMI-8226 leukemia): > 10 µM | TGI (BT-549 breast): > 10 µM | TGI (UO-31 renal): > 10 µM | TGI (TK-10 renal): > 10 µM | TGI (KM12 colon): > 10 µM | TGI (SW-620 colon): > 10 µM | TGI (786-0 renal): > 10 µM | TGI (OVCAR-5 ovarian): > 10 µM | TGI (SF-295 CNS): > 10 µM | TGI (OVCAR-4 ovarian): > 10 µM | TGI (SN12C renal): > 10 µM | TGI (T-47D breast): > 10 µM | TGI (SK-MEL-2 melanoma): > 10 µM | TGI (MDA-N): > 10 µM | TGI (COLO 205 colon): > 10 µM | TGI (NCI-H23 lung): > 10 µM | TGI (HCC-2998 colon): > 10 µM | TGI (MDA-MB-231 breast): > 10 µM | TGI (HL-60(TB) leukemia): > 10 µM | TGI (NCI/ADR-RES ovarian): > 10 µM | TGI (SF-539 CNS): > 10 µM | TGI (CCRF-CEM leukemia): > 10 µM | TGI (SK-OV-3 ovarian): > 10 µM | TGI (HS 578T breast): > 10 µM | TGI (K-562 leukemia): > 10 µM | TGI (HT29 colon): > 10 µM | TGI (DU-145 prostate): > 10 µM | TGI (HOP-62 NSCLC): > 10 µM | TGI (A498 renal): > 10 µM | TGI (HCT-15 colon): > 10 µM | TGI (NCI-H522 lung): > 10 µM | TGI (IGROV1 ovarian): > 10 µM | TGI (LOX IMVI melanoma): > 10 µM | TGI (SNB-75 CNS): > 10 µM | TGI (MOLT-4 leukemia): > 10 µM | TGI (SK-MEL-28 melanoma): > 10 µM | TGI (SF-268 CNS): > 10 µM | TGI (A549 NSCLC): > 10 µM | TGI (NCI-H460 lung): > 10 µM | TGI (SR leukemia): > 10 µM | TGI (OVCAR-8 ovarian): > 10 µM | TGI (EKVX NSCLC): > 10 µM | TGI (OVCAR-3 ovarian): > 10 µM | TGI (UACC-257 melanoma): > 10 µM | TGI (MALME-3M melanoma): > 10 µM
